Here are results for nine compounds from ChEMBL document CHEMBL1128892, “Pharmacological evaluation of UK-14,304 analogs at cloned human adrenergic receptors” (Bioorg Med Chem Lett, 1995).

Active and inactive are the calls of the source. The rule behind the calls is not given here.

Assay [1] concerns the target T1, Alpha-1A adrenergic receptor (Homo sapiens, UniProt P35348).
T1 sequence (P35348 whole entry): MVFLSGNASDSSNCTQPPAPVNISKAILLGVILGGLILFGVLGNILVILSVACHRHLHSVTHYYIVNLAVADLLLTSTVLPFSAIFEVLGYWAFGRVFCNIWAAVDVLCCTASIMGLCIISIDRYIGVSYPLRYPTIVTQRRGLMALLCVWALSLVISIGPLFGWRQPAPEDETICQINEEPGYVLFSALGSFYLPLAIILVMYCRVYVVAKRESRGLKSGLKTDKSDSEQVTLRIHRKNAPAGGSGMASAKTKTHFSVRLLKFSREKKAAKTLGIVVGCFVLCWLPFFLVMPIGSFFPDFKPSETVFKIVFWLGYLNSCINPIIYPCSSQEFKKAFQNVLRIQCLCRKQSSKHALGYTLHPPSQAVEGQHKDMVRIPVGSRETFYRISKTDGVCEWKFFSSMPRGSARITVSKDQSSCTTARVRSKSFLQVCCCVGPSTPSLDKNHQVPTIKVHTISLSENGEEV
Nature of the assay: Binding affinity for human Alpha-1A adrenergic receptor from cultured LM(tk-) cells using [3H]-prazosin.

Assay [2] deals with T2, Alpha-2B adrenergic receptor (Homo sapiens) (UniProt P18089).
T2 sequence (whole entry): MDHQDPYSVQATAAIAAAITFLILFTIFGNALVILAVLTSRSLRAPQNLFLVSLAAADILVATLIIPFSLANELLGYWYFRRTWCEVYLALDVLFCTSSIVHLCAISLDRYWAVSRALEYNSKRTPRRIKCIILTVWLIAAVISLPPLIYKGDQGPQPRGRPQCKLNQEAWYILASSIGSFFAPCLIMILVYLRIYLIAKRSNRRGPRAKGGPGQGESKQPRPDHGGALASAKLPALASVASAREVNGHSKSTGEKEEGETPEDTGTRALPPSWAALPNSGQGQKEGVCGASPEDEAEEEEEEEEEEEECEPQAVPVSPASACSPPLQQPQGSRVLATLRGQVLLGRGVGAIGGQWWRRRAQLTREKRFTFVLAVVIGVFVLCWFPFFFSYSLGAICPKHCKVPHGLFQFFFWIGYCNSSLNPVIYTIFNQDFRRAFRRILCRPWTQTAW
Nature of the assay: Inhibitory activity against Alpha-2B adrenergic receptor relative to norepinephrine at 100 uM; Not active.

Assay [3] has as its target T3, Alpha-2A adrenergic receptor (Homo sapiens, UniProt P08913).
T3 sequence (P08913 whole entry): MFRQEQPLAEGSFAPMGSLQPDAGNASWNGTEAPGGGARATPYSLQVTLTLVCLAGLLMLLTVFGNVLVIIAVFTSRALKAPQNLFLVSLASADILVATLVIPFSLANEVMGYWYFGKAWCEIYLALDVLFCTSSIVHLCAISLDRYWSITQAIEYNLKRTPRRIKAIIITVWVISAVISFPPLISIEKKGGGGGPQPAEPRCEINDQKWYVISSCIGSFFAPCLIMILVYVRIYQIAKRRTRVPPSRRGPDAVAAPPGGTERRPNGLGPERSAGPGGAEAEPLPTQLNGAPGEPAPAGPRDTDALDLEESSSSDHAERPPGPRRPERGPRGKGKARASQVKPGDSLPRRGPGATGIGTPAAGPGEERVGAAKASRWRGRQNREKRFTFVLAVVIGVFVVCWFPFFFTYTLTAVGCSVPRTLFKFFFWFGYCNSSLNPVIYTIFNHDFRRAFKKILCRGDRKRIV
Briefly: Alpha-2A adrenergic receptor agonistic potency as inhibition of forskolin-stimulated synthesis of cyclic adenosine monophosphate. The class given is functional.

For assay [4], the target named is T4, Alpha-1D adrenergic receptor (Homo sapiens, UniProt P25100).
T4 sequence (P25100 whole entry): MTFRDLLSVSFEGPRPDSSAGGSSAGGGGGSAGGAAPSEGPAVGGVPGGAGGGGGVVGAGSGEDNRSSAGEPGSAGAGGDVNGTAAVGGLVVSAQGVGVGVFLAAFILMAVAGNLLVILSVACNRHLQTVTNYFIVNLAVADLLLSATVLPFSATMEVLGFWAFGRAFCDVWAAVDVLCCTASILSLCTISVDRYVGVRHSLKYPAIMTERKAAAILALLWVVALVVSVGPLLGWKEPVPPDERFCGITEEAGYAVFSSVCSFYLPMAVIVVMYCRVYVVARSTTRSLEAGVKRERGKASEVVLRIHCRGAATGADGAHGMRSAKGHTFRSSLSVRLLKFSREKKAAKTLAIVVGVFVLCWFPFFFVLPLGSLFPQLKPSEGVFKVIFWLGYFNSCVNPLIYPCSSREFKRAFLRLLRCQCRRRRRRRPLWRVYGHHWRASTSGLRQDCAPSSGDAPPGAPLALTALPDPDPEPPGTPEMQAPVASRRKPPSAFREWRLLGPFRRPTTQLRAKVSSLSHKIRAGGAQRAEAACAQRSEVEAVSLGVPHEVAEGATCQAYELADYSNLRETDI
Nature of the assay: Binding affinity for human Alpha-1D adrenergic receptor from cultured LM(tk-) cells using [3H]- prazosin.

Assay [5] addresses T3, Alpha-2A adrenergic receptor. Nature of the assay: Binding affinity for human Alpha-2A adrenergic receptor from cultured LM(tk-) cells using [3H]rauwolscine.
Assay [6] deals with T2, Alpha-2B adrenergic receptor (Homo sapiens). Nature of the assay: The Alpha-2B adrenergic receptor agonistic potency for its ability to inhibit forskolin-stimulated synthesis of cyclic adenosine monophosphate at 100 uM concentration; Not active. The class given is functional.
Assay [7] concerns the target T5, Alpha-1B adrenergic receptor (Homo sapiens, UniProt P35368).
T5 sequence (P35368 whole entry): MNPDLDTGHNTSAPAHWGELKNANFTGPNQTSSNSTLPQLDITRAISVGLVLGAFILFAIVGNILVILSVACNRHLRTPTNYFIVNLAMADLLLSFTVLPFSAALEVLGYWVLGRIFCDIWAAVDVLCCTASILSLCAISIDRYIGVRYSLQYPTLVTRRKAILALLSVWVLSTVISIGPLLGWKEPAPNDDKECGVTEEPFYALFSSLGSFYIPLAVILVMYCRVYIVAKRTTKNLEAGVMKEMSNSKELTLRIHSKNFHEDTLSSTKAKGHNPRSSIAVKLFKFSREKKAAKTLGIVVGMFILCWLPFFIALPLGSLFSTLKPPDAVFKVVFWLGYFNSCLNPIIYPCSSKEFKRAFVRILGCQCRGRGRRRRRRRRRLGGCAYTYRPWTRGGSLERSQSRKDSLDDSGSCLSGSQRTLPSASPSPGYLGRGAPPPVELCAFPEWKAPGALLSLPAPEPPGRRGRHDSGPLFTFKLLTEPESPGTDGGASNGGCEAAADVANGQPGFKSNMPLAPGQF
Nature of the assay: Binding affinity for human Alpha-1B adrenergic receptor from cultured LM(tk-) cells using [3H]prazosin.

Assay [8] has as its target T6, Alpha-2C adrenergic receptor (Homo sapiens) (UniProt P18825).
T6 sequence (whole entry): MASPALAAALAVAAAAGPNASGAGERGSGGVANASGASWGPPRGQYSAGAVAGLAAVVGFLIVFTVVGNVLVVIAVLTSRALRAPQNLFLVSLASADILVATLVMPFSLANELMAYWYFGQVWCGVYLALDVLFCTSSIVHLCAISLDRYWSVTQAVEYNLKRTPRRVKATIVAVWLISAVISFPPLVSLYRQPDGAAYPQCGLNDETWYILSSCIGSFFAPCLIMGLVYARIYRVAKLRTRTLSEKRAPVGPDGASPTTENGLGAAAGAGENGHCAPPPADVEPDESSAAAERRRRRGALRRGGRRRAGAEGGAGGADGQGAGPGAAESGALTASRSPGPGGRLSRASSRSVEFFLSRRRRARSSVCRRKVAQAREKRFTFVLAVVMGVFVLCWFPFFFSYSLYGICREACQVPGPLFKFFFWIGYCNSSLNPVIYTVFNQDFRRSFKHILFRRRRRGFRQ
Nature of the assay: Inhibitory activity against Alpha-2C adrenergic receptor relative to norepinephrine.

Assay [9] addresses T7, Alpha-2A adrenergic receptor (Homo sapiens) (UniProt P08913).
T7 sequence (whole entry): T3 sequence (P08913 whole entry)
Briefly: Inhibitory activity against Alpha-2A adrenergic receptor relative to norepinephrine.

Assay [10] deals with T8, Alpha-2C adrenergic receptor (Homo sapiens, UniProt P18825).
T8 sequence (P18825 whole entry): T6 sequence (whole entry)
Briefly: Alpha-2C adrenergic receptor agonistic potency as inhibition of forskolin-stimulated cyclic adenosine monophosphate synthesis. The class given is functional.

Assay [11] concerns the target T8, Alpha-2C adrenergic receptor. Briefly: Binding affinity for human Alpha-2C adrenergic receptor from cultured LM(tk-) cells using [3H]- prazosin.
Assay [12] addresses T9, Alpha-2B adrenergic receptor (Homo sapiens, UniProt P18089).
T9 sequence (P18089 whole entry): T2 sequence (whole entry)
Nature of the assay: Binding affinity for human Alpha-2B adrenergic receptor from cultured Y-1 cells using [3H]rauwolscine. The class given is cell-based.

Assay [13] has as its target T7, Alpha-2A adrenergic receptor (Homo sapiens). Nature of the assay: Alpha-2A adrenergic receptor agonistic potency as inhibition of forskolin-stimulated cyclic adenosine monophosphate synthesis at 100 uM; Not active. The class given is functional.
Assay [14] has as its target T6, Alpha-2C adrenergic receptor (Homo sapiens). As to conditions: 100 uM.
Assay [15] concerns the target T7, Alpha-2A adrenergic receptor (Homo sapiens). Briefly: Inhibitory activity against Alpha-2A adrenergic receptor relative to norepinephrine at 100 uM; Not active.
In assay [16] the target is T6, Alpha-2C adrenergic receptor (Homo sapiens). Briefly: Inhibitory activity against Alpha-2C adrenergic receptor relative to norepinephrine at 100 uM; Not active.
In assay [17] the target is T9, Alpha-2B adrenergic receptor. Nature of the assay: Alpha-2B adrenergic receptor agonistic potency as inhibition of forskolin-stimulated cyclic adenosine monophosphate synthesis. The class given is functional.
Assay [18] concerns the target T6, Alpha-2C adrenergic receptor (Homo sapiens). Nature of the assay: Alpha-2C adrenergic receptor agonistic potency as inhibition of forskolin-stimulated cyclic adenosine monophosphate synthesis at 100 uM; Not active. The class given is functional.

Take `Cc1cnc2c(Br)c(NC3=NCCN3)ccc2n1`: the Ki (in general, a dissociation constant, usually derived from enzyme kinetics or from competition with a known ligand) is greater than 100 µM in assay [1]; 5.01 µM in assay [4]; 0.0741 µM in assay [5]; greater than 100 µM in assay [7]; 0.646 µM in [11]; 0.324 µM in assay [12]. The Intrinsic activity result in assay [2] is “inactive”. Besides, the half-maximal effective concentration (EC50) (usually the midpoint of the concentration-response curve) in [3] was 0.851 µM; in assay [10], 0.832 µM. For the same compound, in assay [6], the “Log EC50” value is “inactive”. The Intrinsic activity in assay [8] is 0.8; in [9] it was 1.

As for `c1cnc2cc(NC3=NCCN3)ccc2n1`, the Ki is 18.2 µM in assay [1]; 12.3 µM in [4]; 0.309 µM in assay [5]; 3.24 µM in assay [7]; 1.41 µM in assay [11]; 0.219 µM in assay [12]. In addition, the Intrinsic activity result in assay [2], in assay [15] and in assay [16] was “inactive” in each case. Further, the “Log EC50” value in assay [13], in assay [14] and in assay [6] was “inactive” throughout.

For the compound `Clc1c(NC2=NCCN2)ccc2nccnc12`, the Ki was 5.13 µM in assay [1]; 2.4 µM in assay [4]; 0.0372 µM in assay [5]; 10.5 µM in [7]; 0.195 µM in assay [11]; 0.0692 µM in [12]. The EC50 in assay [17] was 0.174 µM; in assay [3] it was 0.00234 µM; in assay [10], 0.0309 µM. Besides, the Intrinsic activity in [8] and in assay [9] was 1 in each case.

Consider `CC1CN=C(Nc2ccc3nccnc3c2Br)N1` (stereo not drawn), for which the Ki was greater than 100 µM in [1]; 5.01 µM in [4]; 3.8 µM in [5]; greater than 100 µM in assay [7]; 0.646 µM in [11]; 3.24 µM in assay [12]. The Intrinsic activity result in assay [2] was “inactive”. In addition, the 50% effective concentration (EC50) in [3] is 15.8 µM; in [10], 0.832 µM. The “Log EC50” value in [6] is “inactive”. Moreover, the Intrinsic activity in assay [8] and in assay [9] was 0.8 in each case.

Consider `Brc1c(NC2=NCCO2)ccc2nccnc12`, for which the Ki was 91.2 µM in [1]; 102 µM in assay [4]; 26.3 µM in [5]; 141 µM in assay [7]; 49 µM in assay [11]; 85.1 µM in assay [12]. Further, the “Log EC50” value in assay [18], in assay [13] and in assay [6] was “inactive” throughout. For the same compound, the Intrinsic activity result in assay [2], in assay [15] and in assay [16] was “inactive” throughout.

`Brc1c(NC2=NCCN2)ccc2nccnc12` [BRIMONIDINE]: the inhibitory constant (Ki) in assay [4] was 0.933 µM; in assay [7], 5.37 µM. Further, the Intrinsic activity in assay [8] and in [9] was 1 throughout.

Regarding `Brc1c(NC2=NCCS2)ccc2nccnc12`, the Ki in [1] was 21.4 µM; in [4] it was 27.5 µM; in assay [5] it was 10.2 µM; in assay [7], 60.3 µM; in assay [11] it was 28.2 µM; in assay [12], 17.4 µM. Also, the “Log EC50” value in [18] and in [6] was “inactive” each time. For the same compound, the Intrinsic activity result in assay [2] and in assay [16] was “inactive” throughout. Besides, in [3], the EC50 is 2.75 µM. In addition, in [9], the Intrinsic activity was 0.9.

Turning to `Brc1c(NC2=N[C@@H]3CCCC[C@@H]3N2)ccc2nccnc12`, the Ki was 14.1 µM in assay [1]; 41.7 µM in assay [4]; 14.8 µM in assay [5]; 105 µM in assay [7]; 11.5 µM in [11]; 18.2 µM in [12]. The “Log EC50” value in assay [18], in assay [13] and in assay [6] was “inactive” in each case. Moreover, the Intrinsic activity result in assay [2], in assay [15] and in [16] was “inactive” each time.

For `Brc1c(NC2=NCCN2)ccc2c1NCCN2`, the Ki is 1.12 µM in assay [1]; 2.69 µM in assay [4]; 0.00646 µM in assay [5]; 4.37 µM in assay [7]; 0.214 µM in [11]; 0.049 µM in [12]. Also, the EC50 in assay [17] is 0.891 µM; in assay [3], 0.00282 µM; in assay [10], 0.105 µM. Further, the Intrinsic activity in [8] and in assay [9] was 1 in each case.
